This note sets out measurements from patent US9133155B2, “Antibacterial agents: high-potency myxopyronin derivatives” (Rutgers, The State University of New Jersey, priority 2010, dated 2015).

≈ marks a conversion by molar mass, not a printed value. Where two headings read alike, the source gives them in different places. Some results are limits rather than exact numbers.

The target of test [1] is E. coli RNA polymerase σ^70 holoenzyme (Escherichia coli, UniProt P0A8T7+P0A8V2). Kind of test: Inhibition of Escherichia coli RNA polymerase (fluorescence-detected). The format is biochemical. The following applies: read-out: IC50 E. coli RNAP. As to the method:
(§1) Fluorescence-detected RNA polymerase assays with E. coli RNA polymerase were performed by a modification of the procedure of Kuhlman et al., 2004 [Kuhlman, P., Duff, H. & Galant, A. (2004) A fluorescence-based assay for multisubunit DNA-dependent RNA polymerases. Anal. Biochem. 324, 183-190]. Reaction mixtures contained (20 μl): 0-100 nM test compound, 75 nM E. coli RNA polymerase σ^70 holoenzyme, 20 nM 384 bp DNA fragment containing the bacteriophage T4 N25 promoter, 100 μM ATP, 100 μM GTP, 100 μM UTP, 100 μM CTP, 50 mM Tris-HCl, pH 8.0, 100 mM KCl, 10 mM MgCl2, 1 mM DTT, 10 μg/ml bovine serum albumin, and 5.5% glycerol. Reaction components other than DNA and NTPs were pre-incubated for 10 min at 37° C. Reactions were carried out by addition of DNA and incubation for 5 min at 37° C., followed by addition of NTPs and incubation for 60 min at 37° C. DNA was removed by addition of 1 μl 5 mM CaCl2 and 2 U DNaseI (Ambion, Inc.), followed by incubation for 90 min at 37° C. RNA was quantified by addition of 100 μl RiboGreen RNA Quantitation Reagent (Invitrogen, Inc.; 1:500 dilution in Tris-HCl, pH 8.0, 1 mM EDTA), followed by incubation for 10 min at 25° C., followed by measurement of fluorescence intensity [excitation wavelength=485 nm and emission wavelength=535 nm; QuantaMaster QM1 spectrofluorometer (PTI, Inc.)].

In test [2] the target is M. tuberculosis RNA polymerase (Mycobacterium tuberculosis, UniProt P9WGY7+P9WGY9). Kind of test: Inhibition of Mycobacterium tuberculosis RNA polymerase (fluorescence-detected). In kind it is biochemical. The procedure: as §1
Fluorescence-detected RNA polymerase assays with M. tuberculosis RNA polymerase were performed as in Example 17.1, using reaction mixtures containing (20 μl): 0-100 nM test compound, 75 nM M. tuberculosis RNA polymerase core enzyme, 300 nM M. tuberculosis σ^A, 20 nM 384 bp DNA fragment containing the bacteriophage […] N25 promoter, 100 μM ATP, 100 μM GTP, 100 μM UTP, 100 μM CTP, 40 mM Tris-HCl, pH 8.0, 80 mM NaCl, 5 mM MgCl2, 2.5 mM DTT, and 12.7% glycerol.

The target in a further test is S. aureus RNA polymerase (Staphylococcus aureus, UniProt P47768+Q2G0N5). Kind of test: Inhibition of Staphylococcus aureus RNA polymerase (fluorescence-detected). The format is biochemical.
Test [3] relates to Acinetobacter baumannii ATCC 19606. Kind of test: Inhibition of bacterial growth in culture (MIC, spiral gradient endpoint). In kind it is cell-based. Particulars: for MIC: Acinetobacter baumannii, ATCC19606, Mueller-Hinton II agar, 16 h at 37° C. An excerpt:
(§2) Minimum inhibitory concentrations (MICs) for Staphylococcus aureus ATCC 12600, Enterococcus faecalis ATCC 19433, Acinetobacter baumannii ATCC 19606, and Escherichia coli D21f2tolC were quantified using spiral gradient endpoint assays, essentially as described [Wallace, A. and Corkill, J. (1989) Application of the spiral plating method to study antimicrobial action. J. Microbiol. Meths. […] Int. J. Exp. Clin. Chemother. 3, 31-38; Schalkowsky S. (1994) Measures of susceptibility from a spiral gradient of drug concentrations. Adv. Exp. Med. Biol. 349, 107-120]. Assays employed exponential-gradient plates containing 150 mm×4 mm Mueller-Hinton II cation-adjusted agar and 0.4-100 μg/ml of test compound. Plates were prepared using an Autoplate 4000 spiral plater (Spiral Biotech, Inc.). Saturated overnight cultures were swabbed radially onto plates, and plates were incubated for 16 h at 37° C. For each culture, the streak length was measured using a clear plastic template (Spiral Biotech, Inc.), the test-compound concentration at the streak endpoint was calculated using the program SGE (Spiral Biotech, Inc.), and the MIC was defined as the calculated test-compound concentration at the streak endpoint.

For test [4], the system named is Enterococcus faecalis ATCC 19433. The description is as above. In kind it is cell-based. Particulars: for MIC: Enterococcus faecalis, ATCC19433, Mueller-Hinton II agar, 16 h at 37° C., read-out: MIC E. faecalis 19433.
Description: as §2

Test [5] concerns Escherichia coli D21f2tolC. Described as above. In kind it is cell-based. Particulars: 16 h, read-out: MIC E. coli D21f2tolC.
Description: as §2

In test [6] the test system is Staphylococcus aureus ATCC 12600. Described as above. In kind it is cell-based. The following applies: for MIC: Staphylococcus aureus, ATCC12600, Mueller-Hinton II agar, 16 h at 37° C., read-out: MIC S. aureus 12600; for inhibition of Staphylococcus aureus compared with Myx B and 7-desmethyl-Myx B: summary of Table 3.
Description: as §2

The test system of another test is Staphylococcus aureus. Kind of test: Antibacterial efficacy in mouse model of Staphylococcus aureus systemic infection (peritonitis model). The format is in vivo, Swiss Webster mice. The following applies: total dose 30 mg/kg iv. As to the method:
Female Swiss Webster mice were experimentally infected by intraperitoneal administration of 5×10^7 colony forming units of Staphylococcus aureus in 10% hog gastric mucin. Test compounds (2-3 mg/ml in vehicle [9-19% dimethyacetamide/8-16% Cremophor EL in water, v/v]), positive controls (2 mg/ml vancomycin in vehicle), and negative controls (vehicle only and saline only), were administered by intravenous injection into a tail vein 1 h and 5 h post-infection (200 μl per injection). Survival was monitored for 12 h post-infection, or for 24, 48, and 72 h post-infection. At the end of the monitoring period, surviving animals were euthanized.

Where [7] appears, read: read-out: IC50 M. tuberculosis RNAP.
Setting [8] is: Table 4c, vehicle 9% dimethylacetamide/8% Cremophor EL/83% water.

Sequence of E. coli RNA polymerase σ^70 holoenzyme (P0A8V2 whole entry, the tested form may be a part): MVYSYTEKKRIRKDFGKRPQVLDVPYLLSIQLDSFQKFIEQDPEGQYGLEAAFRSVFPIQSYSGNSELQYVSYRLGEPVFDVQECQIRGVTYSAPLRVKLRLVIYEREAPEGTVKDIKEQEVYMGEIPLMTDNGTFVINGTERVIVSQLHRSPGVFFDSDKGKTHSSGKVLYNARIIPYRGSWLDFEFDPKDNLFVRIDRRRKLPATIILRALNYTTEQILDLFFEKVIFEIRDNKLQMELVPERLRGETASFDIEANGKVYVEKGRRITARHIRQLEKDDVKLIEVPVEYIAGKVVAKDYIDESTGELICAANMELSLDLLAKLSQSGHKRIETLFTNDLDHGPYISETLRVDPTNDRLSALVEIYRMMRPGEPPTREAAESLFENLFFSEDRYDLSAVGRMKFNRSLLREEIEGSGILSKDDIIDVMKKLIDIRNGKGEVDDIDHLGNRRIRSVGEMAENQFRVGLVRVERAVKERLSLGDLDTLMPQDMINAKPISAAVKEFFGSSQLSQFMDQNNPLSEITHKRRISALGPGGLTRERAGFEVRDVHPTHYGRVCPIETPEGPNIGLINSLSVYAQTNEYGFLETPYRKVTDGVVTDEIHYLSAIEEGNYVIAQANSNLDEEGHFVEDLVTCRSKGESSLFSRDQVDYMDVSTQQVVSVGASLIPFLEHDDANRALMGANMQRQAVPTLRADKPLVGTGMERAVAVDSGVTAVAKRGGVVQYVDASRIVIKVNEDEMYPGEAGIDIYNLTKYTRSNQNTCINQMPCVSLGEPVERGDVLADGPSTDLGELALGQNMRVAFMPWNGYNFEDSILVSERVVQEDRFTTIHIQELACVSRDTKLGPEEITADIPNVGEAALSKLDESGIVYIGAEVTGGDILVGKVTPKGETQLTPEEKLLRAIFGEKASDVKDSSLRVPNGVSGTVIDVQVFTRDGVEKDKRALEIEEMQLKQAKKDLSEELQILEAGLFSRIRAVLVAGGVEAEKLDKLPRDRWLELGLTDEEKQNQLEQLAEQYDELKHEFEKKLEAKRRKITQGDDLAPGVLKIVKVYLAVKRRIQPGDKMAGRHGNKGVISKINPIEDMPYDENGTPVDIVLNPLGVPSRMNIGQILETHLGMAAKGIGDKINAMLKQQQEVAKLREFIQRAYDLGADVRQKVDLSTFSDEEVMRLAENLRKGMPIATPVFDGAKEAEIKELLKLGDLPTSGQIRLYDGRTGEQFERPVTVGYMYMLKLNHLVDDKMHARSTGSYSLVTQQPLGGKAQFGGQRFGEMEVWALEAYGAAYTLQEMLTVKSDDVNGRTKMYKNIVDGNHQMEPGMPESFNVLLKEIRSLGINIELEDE
Sequence of E. coli RNA polymerase σ^70 holoenzyme (P0A8T7 whole entry, the tested form may be a part): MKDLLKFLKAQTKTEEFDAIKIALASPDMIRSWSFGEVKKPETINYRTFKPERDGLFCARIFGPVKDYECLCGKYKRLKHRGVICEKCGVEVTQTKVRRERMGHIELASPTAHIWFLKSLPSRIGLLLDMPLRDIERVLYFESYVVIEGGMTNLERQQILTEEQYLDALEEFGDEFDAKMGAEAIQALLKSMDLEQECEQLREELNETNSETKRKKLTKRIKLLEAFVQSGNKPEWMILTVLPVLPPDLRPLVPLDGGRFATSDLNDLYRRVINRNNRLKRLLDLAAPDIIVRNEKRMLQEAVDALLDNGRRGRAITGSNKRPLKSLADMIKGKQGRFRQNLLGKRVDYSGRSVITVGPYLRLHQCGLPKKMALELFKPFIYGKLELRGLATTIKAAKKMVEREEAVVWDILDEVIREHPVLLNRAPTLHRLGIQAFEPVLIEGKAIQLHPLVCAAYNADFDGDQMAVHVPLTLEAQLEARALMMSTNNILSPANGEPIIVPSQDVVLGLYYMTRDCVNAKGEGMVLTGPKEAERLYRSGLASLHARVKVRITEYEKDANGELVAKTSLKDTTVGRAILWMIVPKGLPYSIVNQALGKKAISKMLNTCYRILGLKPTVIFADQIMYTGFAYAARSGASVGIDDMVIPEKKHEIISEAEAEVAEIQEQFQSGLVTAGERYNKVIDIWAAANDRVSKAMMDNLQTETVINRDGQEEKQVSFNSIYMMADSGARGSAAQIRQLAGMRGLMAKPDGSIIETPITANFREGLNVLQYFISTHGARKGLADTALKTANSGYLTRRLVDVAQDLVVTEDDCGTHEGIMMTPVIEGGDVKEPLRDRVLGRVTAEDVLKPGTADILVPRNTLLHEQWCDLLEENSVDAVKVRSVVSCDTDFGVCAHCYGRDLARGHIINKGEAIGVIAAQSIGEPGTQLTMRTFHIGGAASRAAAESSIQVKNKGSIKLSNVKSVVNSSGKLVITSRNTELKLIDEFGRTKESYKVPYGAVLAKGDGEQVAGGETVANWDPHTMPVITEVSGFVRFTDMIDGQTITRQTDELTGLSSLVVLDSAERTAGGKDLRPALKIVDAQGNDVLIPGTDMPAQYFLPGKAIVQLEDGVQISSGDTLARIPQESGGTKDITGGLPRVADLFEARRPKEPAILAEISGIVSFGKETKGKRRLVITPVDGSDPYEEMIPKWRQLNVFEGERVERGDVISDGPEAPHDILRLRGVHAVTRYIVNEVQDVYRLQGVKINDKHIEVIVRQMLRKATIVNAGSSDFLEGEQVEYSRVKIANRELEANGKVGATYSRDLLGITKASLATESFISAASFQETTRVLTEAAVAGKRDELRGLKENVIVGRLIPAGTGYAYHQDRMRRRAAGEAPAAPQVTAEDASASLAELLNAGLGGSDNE
Sequence of E. coli RNA polymerase σ^70 holoenzyme (P0A7Z4 whole entry partner, the tested form may be a part): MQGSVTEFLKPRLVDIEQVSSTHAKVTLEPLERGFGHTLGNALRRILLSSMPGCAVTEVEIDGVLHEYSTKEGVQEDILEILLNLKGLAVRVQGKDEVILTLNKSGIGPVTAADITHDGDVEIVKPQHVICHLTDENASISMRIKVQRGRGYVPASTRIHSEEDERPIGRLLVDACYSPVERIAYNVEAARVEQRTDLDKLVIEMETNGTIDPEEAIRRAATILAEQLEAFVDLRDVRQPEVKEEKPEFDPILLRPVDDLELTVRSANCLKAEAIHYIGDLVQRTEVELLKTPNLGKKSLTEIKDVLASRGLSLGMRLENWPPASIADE
Sequence of E. coli RNA polymerase σ^70 holoenzyme (P0A800 whole entry partner, the tested form may be a part): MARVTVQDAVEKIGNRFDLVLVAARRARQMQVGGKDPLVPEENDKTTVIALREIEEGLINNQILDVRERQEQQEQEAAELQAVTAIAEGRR
Sequence of E. coli RNA polymerase σ^70 holoenzyme (P00579 whole entry partner, the tested form may be a part): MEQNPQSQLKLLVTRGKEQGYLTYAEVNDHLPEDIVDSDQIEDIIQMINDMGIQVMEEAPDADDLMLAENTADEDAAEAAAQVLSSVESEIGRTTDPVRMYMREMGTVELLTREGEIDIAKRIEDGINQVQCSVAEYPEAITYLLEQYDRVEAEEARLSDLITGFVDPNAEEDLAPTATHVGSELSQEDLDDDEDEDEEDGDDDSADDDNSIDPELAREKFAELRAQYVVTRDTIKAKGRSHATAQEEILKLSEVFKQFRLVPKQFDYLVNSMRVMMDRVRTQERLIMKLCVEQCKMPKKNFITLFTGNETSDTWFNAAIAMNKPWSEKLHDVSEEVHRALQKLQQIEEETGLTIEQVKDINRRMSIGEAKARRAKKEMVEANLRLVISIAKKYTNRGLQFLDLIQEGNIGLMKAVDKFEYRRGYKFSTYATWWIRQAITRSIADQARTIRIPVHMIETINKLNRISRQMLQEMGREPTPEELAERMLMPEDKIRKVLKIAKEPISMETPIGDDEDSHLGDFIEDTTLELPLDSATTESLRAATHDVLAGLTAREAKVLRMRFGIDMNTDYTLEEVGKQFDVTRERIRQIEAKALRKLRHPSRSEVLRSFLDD

For `CCCCCCCC/C=C/C=C(\C)C(=O)c1c(O)cc([C@H](C)CC/C=C/NC(=O)OC)oc1=O` (racemic) [compound 4, methyl ((E)-5-(4-hydroxy-3-((2E,4E)-2-methyltrideca-2,4-dienoyl)-2-oxo-2H-pyran-6-yl)hex-1-enyl)carbamate], the IC50 in test [1] was determined as 0.0046 µM; in test [2] (setting [7]) it was 0.32 µM; at S. aureus RNA polymerase (read-out: IC50 S. aureus RNAP), 0.0083 µM. Also, the minimum inhibitory concentration (MIC) in test [3] is 3.1 mg/L (≈ 6.55 µM); in test [4], more than 40 mg/L; in test [5], less than 0.18 mg/L; in test [6] it was 9.4 mg/L (≈ 19.8 µM).

For `CCCC/C(C)=C/C=C(\C)C(=O)c1c(O)cc(CCC/C=C/NC(=O)OC)oc1=O` [7-desmethyl-Myx B, Methyl ((E)-5-(3-((2E,4E)-2,5-dimethylnona-2,4-dienoyl)-4-hydroxy-2-oxo-2H-pyran-6-yl)pent-1-en-1-yl)carbamate, reference compound], the IC50 amounted to 0.022 µM in test [1], 0.081 µM in test [2] and 0.14 µM against S. aureus RNA polymerase. The MIC is more than 40 mg/L in test [3], 25 mg/L (≈ 59.9 µM) in test [4], 0.195 mg/L (≈ 0.467 µM) in test [5] and 3.1 mg/L (≈ 7.43 µM) in test [6]. The “inhibition of Acinetobacter baumannii (in words)” value in test [3] (summary of Table 3) was “not detectably inhibited”.

Consider `CCCCC/C=C/C=C(\C)C(=O)c1c(O)cc(C(C)CC/C=C/NC(=O)OC)oc1=O` (stereo not drawn) [compound 1, Methyl ((E)-5-(4-hydroxy-3-((2E,4E)-2-methyldeca-2,4-dienoyl)-2-oxo-2H-pyran-6-yl)hex-1-en-1-yl)carbamate], for which the IC50 was found to be 0.012 µM in test [1], 0.085 µM in test [2] (setting [7]) and 0.052 µM at S. aureus RNA polymerase (read-out: IC50 S. aureus RNAP). Besides, the MIC in test [3] was more than 40 mg/L; in test [4], more than 40 mg/L; in test [5], 0.3 mg/L (≈ 0.695 µM); in test [6], 1.4 mg/L (≈ 3.24 µM).

`CCCCCC/C=C/C=C(\C)C(=O)c1c(O)cc(C(C)CC/C=C/NC(=O)OC)oc1=O` (stereo not drawn) [compound 2, Methyl ((E)-5-(4-hydroxy-3-((2E,4E)-2-methylundeca-2,4-dienoyl)-2-oxo-2H-pyran-6-yl)hex-1-en-1-yl)carbamate]: the IC50 in test [1] was 0.011 µM; in test [2] (setting [7]), 0.07 µM; on S. aureus RNA polymerase (read-out: IC50 S. aureus RNAP), 0.023 µM. For the same compound, the minimal inhibitory concentration (MIC) was 25 mg/L (≈ 56.1 µM) in test [3], more than 40 mg/L in test [4], 0.23 mg/L (≈ 0.516 µM) in test [5] and 1.4 mg/L (≈ 3.14 µM) in test [6].

In the case of `CCCCCCC/C=C/C=C(\C)C(=O)c1c(O)cc(C(C)CC/C=C/NC(=O)OC)oc1=O` (stereo not drawn) [compound 3, Methyl ((E)-5-(4-hydroxy-3-((2E,4E)-2-methyldodeca-2,4-dienoyl)-2-oxo-2H-pyran-6-yl)hex-1-en-1-yl)carbamate], the IC50 in test [1] was 0.0068 µM; in test [2] (setting [7]), 0.27 µM; at S. aureus RNA polymerase (read-out: IC50 S. aureus RNAP), 0.017 µM. In addition, the MIC in test [3] was 5.6 mg/L (≈ 12.2 µM); in test [4], more than 40 mg/L; in test [5], less than 0.18 mg/L; in test [6], 2.4 mg/L (≈ 5.22 µM).

With `CCCCCC/C(C)=C/C=C(\C)C(=O)c1c(O)cc(CCC/C=C/NC(=O)OC)oc1=O` [compound 6, Methyl ((E)-5-(3-((2E,4E)-2,5-dimethylundeca-2,4-dienoyl)-4-hydroxy-2-oxo-2H-pyran-6-yl)pent-1-en-1-yl)carbamate], the results for the IC50 (in test [1]; in test [2] (setting [7]); on S. aureus RNA polymerase (read-out: IC50 S. aureus RNAP)) were 0.0039 µM, 0.047 µM and 0.012 µM, respectively. Also, the MIC was 5.5 mg/L (≈ 12.3 µM) in test [3], 13 mg/L (≈ 29.2 µM) in test [4], 0.076 mg/L (≈ 0.171 µM) in test [5] and 0.45 mg/L (≈ 1.01 µM) in test [6]. The “inhibition of Staphylococcus aureus compared with Myx B and 7-desmethyl-Myx B” value in test [6] is “more potently than Myx B and 7-desmethyl-Myx B”.

In the case of `CCCCCC/C(C)=C/C=C(\C)C(=O)c1c(O)cc(CCC/C=C/NC(=O)OCC)oc1=O` [compound 7, Ethyl ((E)-5-(3-((2E,4E)-2,5-dimethylundeca-2,4-dienoyl)-4-hydroxy-2-oxo-2H-pyran-6-yl)pent-1-en-1-yl)carbamate], the IC50 in test [1] was 0.063 µM; in test [2] (setting [7]), 0.45 µM; on S. aureus RNA polymerase (read-out: IC50 S. aureus RNAP), 0.093 µM. Besides, the MIC in test [3] is more than 40 mg/L; in test [4], more than 40 mg/L; in test [5], 0.37 mg/L (≈ 0.805 µM); in test [6] it was 12 mg/L (≈ 26.1 µM).

With `CCCCCC/C(C)=C/C=C(\C)C(=O)c1c(O)cc(C(C)CC/C=C/NC(=O)OC)oc1=O` (stereo not drawn) [compound 9, Methyl ((E)-5-(3-((2E,4E)-2,5-dimethylundeca-2,4-dienoyl)-4-hydroxy-2-oxo-2H-pyran-6-yl)hex-1-en-1-yl)carbamate], the IC50 in test [1] is 0.0047 µM; in test [2] (setting [7]), 0.036 µM; on S. aureus RNA polymerase (read-out: IC50 S. aureus RNAP) it was 0.013 µM. The MIC in test [3] turned out to be 5.5 mg/L (≈ 12 µM); in test [4], 6.4 mg/L (≈ 13.9 µM); in test [5] it was 0.076 mg/L (≈ 0.165 µM); in test [6], 0.34 mg/L (≈ 0.74 µM). In addition, the “inhibition of Enterococcus faecalis compared with Myx B and 7-desmethyl-Myx B” value in test [4] (summary of Table 3) was “more potently than Myx B and 7-desmethyl-Myx B”. Besides, the “inhibition of Staphylococcus aureus compared with Myx B and 7-desmethyl-Myx B” value in test [6] was “more potently than Myx B and 7-desmethyl-Myx B”.

For the compound `CCCCC/C(C)=C\C=C(/C)C(=O)c1c(O)cc(CCC/C=C/NC(=O)OC)oc1=O` [compound 10, Methyl ((E)-5-(3-((2E,4Z)-2,5-dimethyldeca-2,4-dienoyl)-4-hydroxy-2-oxo-2H-pyran-6-yl)pent-1-en-1-yl)carbamate], the figures for the concentration for half-maximal inhibition (IC50) (in test [1]; in test [2] (setting [7]); on S. aureus RNA polymerase (read-out: IC50 S. aureus RNAP)) were 0.04 µM, 0.34 µM and 0.1 µM, respectively. Further, the MIC in test [3] is more than 40 mg/L; in test [4], more than 40 mg/L; in test [5], 0.39 mg/L (≈ 0.904 µM); in test [6], 3.3 mg/L (≈ 7.65 µM).

For the compound `CN[C@H](CC(C)C)C(=O)N[C@H]1C(=O)N[C@@H](CC(N)=O)C(=O)N[C@H]2C(=O)N[C@H]3C(=O)N[C@H](C(=O)N[C@H](C(=O)O)c4cc(O)cc(O)c4-c4cc3ccc4O)[C@H](O)c3ccc(c(Cl)c3)Oc3cc2cc(c3O[C@@H]2O[C@H](CO)[C@@H](O)[C@H](O)[C@H]2O[C@H]2C[C@](C)(N)[C@H](O)[C@H](C)O2)Oc2ccc(cc2Cl)[C@H]1O` [vancomycin], the 12-hour survival in the test with Staphylococcus aureus (Table 4a, 1 h and 5 h post-infection, vehicle 19% dimethylacetamide/8% Cremophor EL/73% water) is listed as 100%. Besides, the 12-hour survival in the test with Staphylococcus aureus (Table 4b, vehicle 19% dimethylacetamide/16% Cremophor EL/73% water) is recorded as 100%. In the test with Staphylococcus aureus (setting [8]), this compound returned a 24-hour survival of 100%, a 48-hour survival of 100% and a 72-hour survival of 100%.

What is called IC50 is the midpoint of a concentration-inhibition curve. As a reminder, the MIC is the lowest concentration found to suppress growth.
